# Results: patent EP4678638A1, “NEW E3 UBIQUITIN LIGASE LIGAND, PROTEIN DEGRADATION AGENT AND USE THEREOF” (priority 2023, dated 2024)
# pIC50: −log10 of the molar value. Like-named read-outs stand apart in the source and are kept apart here.
# How the values were obtained:
# Type in all cases: cell-based
# IKZF2 = molecular target: T1, IKZF2 (Homo sapiens, UniProt Q96SW2+Q9UKS7); test: Western blot degradation of IKZF2 (hPBMC); details: Table D16
# T1 construct: evaluate the effects of the compounds of the present disclosure on the expression of target proteins in cells; endogenous in cells; host or cells: hPBMC
# Method in brief: (§1)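 Quantification by ImageJ densitometry of Western blot bands: DC50 is the fitted concentration halving band intensity relative to DMSO. Percent remaining uses internal-control normalization, and degradation rate is its complement.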
# IKZF1 = molecular target: T2, IKZF1 (Homo sapiens, UniProt Q13422+Q96SW2); test: Western blot degradation of IKZF1 (hPBMC); details: Table D16
# T2 construct: evaluate the effects of the compounds of the present disclosure on the expression of target proteins in cells; endogenous in cells; host or cells: hPBMC
# Method in brief: as §1
# IKZF3 = molecular target: T3, IKZF3 (Homo sapiens, UniProt Q96SW2+Q9UKT9); test: Western blot degradation of IKZF3 (hPBMC); details: Table D16
# T3 construct: evaluate the effects of the compounds of the present disclosure on the expression of target proteins in cells; endogenous in cells; host or cells: hPBMC
# Method in brief: as §1
# GSPT1 = molecular target: T4, GSPT1 (Homo sapiens, UniProt P15170+Q96SW2); test: Western blot degradation of GSPT1 (hPBMC); details: Table D16
# T4 construct: evaluate the effects of the compounds of the present disclosure on the expression of target proteins in cells; endogenous in cells; host or cells: hPBMC
# Method in brief: as §1
# WEE1 = molecular target: T5, WEE1 (Homo sapiens, UniProt P30291+Q96SW2); test: Western blot degradation of WEE1 (hPBMC); details: Table D16
# T5 construct: evaluate the effects of the compounds of the present disclosure on the expression of target proteins in cells; endogenous in cells; host or cells: hPBMC
# Method in brief: as §1
# CK1a = molecular target: T6, CK1a (Homo sapiens, UniProt P48729+Q96SW2); test: Western blot degradation of CK1a (hPBMC); details: Table D16
# T6 construct: evaluate the effects of the compounds of the present disclosure on the expression of target proteins in cells; endogenous in cells; host or cells: hPBMC
# Method in brief: as §1
# MM.1S = test: CCK-8 proliferation, MM.1S; details: Homo sapiens, MM1.S, read-out: Inhibitory activity (IC50) on tumor cell proliferation, MM1S
# Method in brief: (§2)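 Cells seeded, then after 24 h treated with 10 concentrations (top 10 µM, 5-fold serial dilution) for a line-specific time at 37°C, 5% CO2. Viability read by CCK-8; IC50 fitted from growth-inhibition curves.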
# MCF7 = test: CCK-8 proliferation, MCF7 (MCF-7); details: Homo sapiens
# Method in brief: as §2
# T6 sequence (P48729 whole entry): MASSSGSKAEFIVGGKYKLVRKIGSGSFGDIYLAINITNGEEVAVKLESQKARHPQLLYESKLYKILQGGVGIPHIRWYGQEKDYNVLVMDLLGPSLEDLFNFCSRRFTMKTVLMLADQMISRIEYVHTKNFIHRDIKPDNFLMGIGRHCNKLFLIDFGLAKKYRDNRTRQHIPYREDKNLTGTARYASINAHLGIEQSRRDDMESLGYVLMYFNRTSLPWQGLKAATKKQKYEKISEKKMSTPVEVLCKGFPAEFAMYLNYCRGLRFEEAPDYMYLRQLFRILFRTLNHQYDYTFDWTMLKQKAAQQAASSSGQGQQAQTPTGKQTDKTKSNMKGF
# T6 sequence (Q96SW2 whole entry): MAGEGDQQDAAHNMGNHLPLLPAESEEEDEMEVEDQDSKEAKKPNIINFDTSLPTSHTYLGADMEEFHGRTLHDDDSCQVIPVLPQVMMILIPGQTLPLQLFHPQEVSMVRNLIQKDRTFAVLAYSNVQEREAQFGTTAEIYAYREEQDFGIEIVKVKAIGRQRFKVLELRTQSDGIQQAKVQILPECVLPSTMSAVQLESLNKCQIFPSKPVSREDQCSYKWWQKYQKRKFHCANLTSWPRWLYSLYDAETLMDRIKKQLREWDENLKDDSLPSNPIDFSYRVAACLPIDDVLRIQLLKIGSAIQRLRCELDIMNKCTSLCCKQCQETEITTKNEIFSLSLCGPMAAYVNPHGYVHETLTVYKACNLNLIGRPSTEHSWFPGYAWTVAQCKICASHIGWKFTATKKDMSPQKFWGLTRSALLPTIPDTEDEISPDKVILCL
# T6 sequence (Q16531 whole entry partner): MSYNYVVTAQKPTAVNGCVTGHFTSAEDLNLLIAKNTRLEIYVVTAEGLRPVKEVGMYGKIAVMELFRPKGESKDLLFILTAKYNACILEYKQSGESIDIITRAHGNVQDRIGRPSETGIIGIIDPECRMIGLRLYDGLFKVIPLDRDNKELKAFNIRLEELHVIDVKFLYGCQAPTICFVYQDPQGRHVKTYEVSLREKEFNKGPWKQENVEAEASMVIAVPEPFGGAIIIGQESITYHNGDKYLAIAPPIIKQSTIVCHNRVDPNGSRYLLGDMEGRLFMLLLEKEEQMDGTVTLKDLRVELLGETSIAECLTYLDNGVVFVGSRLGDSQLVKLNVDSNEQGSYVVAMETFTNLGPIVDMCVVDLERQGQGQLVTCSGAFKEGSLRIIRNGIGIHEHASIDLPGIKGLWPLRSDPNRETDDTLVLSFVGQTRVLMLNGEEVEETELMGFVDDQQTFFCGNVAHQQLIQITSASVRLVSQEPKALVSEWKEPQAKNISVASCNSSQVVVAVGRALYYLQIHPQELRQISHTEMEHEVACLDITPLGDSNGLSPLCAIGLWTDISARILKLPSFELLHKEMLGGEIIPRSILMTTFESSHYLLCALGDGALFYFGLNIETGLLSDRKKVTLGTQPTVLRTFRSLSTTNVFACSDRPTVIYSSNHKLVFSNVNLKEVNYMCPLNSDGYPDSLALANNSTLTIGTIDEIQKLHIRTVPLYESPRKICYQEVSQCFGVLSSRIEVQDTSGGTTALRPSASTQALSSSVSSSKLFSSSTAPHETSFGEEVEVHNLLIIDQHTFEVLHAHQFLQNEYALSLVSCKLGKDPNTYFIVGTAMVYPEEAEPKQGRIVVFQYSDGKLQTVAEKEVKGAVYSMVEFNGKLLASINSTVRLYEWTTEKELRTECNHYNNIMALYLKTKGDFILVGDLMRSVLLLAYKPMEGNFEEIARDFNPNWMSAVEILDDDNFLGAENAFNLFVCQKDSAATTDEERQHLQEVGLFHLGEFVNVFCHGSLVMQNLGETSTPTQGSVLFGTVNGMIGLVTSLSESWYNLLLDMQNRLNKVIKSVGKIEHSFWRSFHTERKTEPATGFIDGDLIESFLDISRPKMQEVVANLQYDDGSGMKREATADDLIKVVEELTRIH
# T5 sequence (P30291 whole entry): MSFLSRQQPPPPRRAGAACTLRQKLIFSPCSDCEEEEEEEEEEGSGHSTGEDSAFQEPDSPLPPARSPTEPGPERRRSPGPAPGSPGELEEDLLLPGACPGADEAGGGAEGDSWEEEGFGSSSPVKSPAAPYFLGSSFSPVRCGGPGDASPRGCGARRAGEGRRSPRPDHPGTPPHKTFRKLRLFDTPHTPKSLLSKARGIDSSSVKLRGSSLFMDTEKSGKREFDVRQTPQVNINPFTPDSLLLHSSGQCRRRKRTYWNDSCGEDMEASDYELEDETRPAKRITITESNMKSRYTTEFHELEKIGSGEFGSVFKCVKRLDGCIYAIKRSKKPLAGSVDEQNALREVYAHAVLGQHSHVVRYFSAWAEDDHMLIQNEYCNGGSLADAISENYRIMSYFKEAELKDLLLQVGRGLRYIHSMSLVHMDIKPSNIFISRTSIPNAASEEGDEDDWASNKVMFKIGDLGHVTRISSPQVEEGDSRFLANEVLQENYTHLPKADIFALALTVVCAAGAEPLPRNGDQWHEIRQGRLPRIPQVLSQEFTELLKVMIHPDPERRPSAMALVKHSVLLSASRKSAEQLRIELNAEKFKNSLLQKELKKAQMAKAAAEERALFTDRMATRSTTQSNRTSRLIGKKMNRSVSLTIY
# T5 sequence (Q96SW2 whole entry): as the sequence (Q96SW2 whole entry) above
# T5 sequence (Q16531 whole entry partner): as the sequence (Q16531 whole entry partner) above
# T3 sequence (Q9UKT9 whole entry): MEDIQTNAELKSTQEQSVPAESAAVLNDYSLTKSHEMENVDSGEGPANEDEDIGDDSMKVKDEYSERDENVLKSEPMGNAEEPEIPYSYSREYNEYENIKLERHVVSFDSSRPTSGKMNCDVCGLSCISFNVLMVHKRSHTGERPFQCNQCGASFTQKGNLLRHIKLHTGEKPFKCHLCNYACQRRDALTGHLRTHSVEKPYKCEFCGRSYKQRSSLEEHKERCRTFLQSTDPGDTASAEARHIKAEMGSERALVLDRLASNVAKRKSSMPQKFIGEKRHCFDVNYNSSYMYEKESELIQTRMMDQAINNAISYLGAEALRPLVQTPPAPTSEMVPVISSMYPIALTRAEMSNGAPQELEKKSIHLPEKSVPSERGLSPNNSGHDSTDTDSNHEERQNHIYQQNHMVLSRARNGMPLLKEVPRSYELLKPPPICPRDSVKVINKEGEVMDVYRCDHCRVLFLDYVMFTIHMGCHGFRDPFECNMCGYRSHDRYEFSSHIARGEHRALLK
# T3 sequence (Q96SW2 whole entry): as the sequence (Q96SW2 whole entry) above
# T3 sequence (Q16531 whole entry partner): as the sequence (Q16531 whole entry partner) above
# T2 sequence (Q13422 whole entry): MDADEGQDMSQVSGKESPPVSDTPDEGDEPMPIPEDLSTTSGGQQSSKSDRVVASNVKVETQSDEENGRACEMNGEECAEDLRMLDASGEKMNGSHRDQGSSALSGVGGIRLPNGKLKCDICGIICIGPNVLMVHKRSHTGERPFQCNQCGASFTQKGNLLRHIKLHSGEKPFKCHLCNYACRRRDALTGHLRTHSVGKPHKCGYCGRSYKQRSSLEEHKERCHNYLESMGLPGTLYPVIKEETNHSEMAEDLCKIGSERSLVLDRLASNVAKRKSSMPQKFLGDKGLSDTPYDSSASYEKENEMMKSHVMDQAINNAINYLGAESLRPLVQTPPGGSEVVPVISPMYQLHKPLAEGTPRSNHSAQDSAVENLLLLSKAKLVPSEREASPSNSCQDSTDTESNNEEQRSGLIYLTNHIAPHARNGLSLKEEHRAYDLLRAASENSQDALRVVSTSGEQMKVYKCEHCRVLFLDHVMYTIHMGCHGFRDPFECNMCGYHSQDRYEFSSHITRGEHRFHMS
# T2 sequence (Q96SW2 whole entry): as the sequence (Q96SW2 whole entry) above
# T2 sequence (Q16531 whole entry partner): as the sequence (Q16531 whole entry partner) above
# T4 sequence (P15170 whole entry): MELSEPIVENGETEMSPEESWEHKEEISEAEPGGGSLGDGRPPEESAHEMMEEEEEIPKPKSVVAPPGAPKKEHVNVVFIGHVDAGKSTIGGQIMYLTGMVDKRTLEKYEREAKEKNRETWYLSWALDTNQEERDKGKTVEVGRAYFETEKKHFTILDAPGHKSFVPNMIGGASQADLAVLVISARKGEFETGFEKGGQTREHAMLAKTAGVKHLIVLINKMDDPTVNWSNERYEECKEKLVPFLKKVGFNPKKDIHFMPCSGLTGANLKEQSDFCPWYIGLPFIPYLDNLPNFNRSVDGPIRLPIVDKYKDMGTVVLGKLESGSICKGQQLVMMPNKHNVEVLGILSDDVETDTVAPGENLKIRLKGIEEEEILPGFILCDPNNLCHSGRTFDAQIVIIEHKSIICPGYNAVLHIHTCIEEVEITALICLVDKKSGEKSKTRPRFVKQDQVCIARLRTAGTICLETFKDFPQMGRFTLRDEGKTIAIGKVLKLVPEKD
# T4 sequence (Q96SW2 whole entry): as the sequence (Q96SW2 whole entry) above
# T4 sequence (Q16531 whole entry partner): as the sequence (Q16531 whole entry partner) above
SMILES,Degradation of substrate protein IKZF2 (substrate protein remaining %) (IKZF2),Degradation of substrate protein IKZF1 (substrate protein remaining %) (IKZF1),Degradation of substrate protein IKZF3 (substrate protein remaining %) (IKZF3),Degradation of substrate protein GSPT1 (substrate protein remaining %) (GSPT1),Degradation of substrate protein WEE1 (substrate protein remaining %) (WEE1),Degradation of substrate protein CKla (substrate protein remaining %) (CK1a),"pIC50 (MM.1S; CCK-8, 72 hours)",pIC50 (MM.1S; 72 h),"pIC50 (MCF7; MCF7, read-out: Inhibitory activity (IC50) on tumor cell proliferation, MCF-7)","pIC50 (MCF7; MCF7, CCK-8, read-out: Inhibitory activity (IC50) on tumor cell proliferation, MCF-7)"
"NCc1ccnc(N2CCC(=O)NC2=O)c1 [GT-07198, 1-(4-(Aminomethyl)pyridin-2-yl)dihydropyrimidine-2,4(1H,3H)-dione]",B (B is defined as substrate protein remaining % > 80%),B (B is defined as substrate protein remaining % > 80%),A (A is defined as 0% ≤ substrate protein remaining % ≤ 80%),B (B is defined as substrate protein remaining % > 80%),B (B is defined as substrate protein remaining % > 80%),B (B is defined as substrate protein remaining % > 80%),5.30 to 6.00,,,
"O=Cc1cnc(NC2CCC(=O)NC2=O)nc1 (stereo not shown) [GT-07367, 2-((2,6-Dioxopiperidin-3-yl)amino)pyrimidine-5-carbaldehyde]",B (B is defined as substrate protein remaining % > 80%),B (B is defined as substrate protein remaining % > 80%),B (B is defined as substrate protein remaining % > 80%),A (A is defined as 0% ≤ substrate protein remaining % ≤ 80%),B (B is defined as substrate protein remaining % > 80%),A (A is defined as 0% ≤ substrate protein remaining % ≤ 80%),5.30 to 6.00,,,
"NCc1cc(N2CCC(=O)NC2=O)ncc1F [GT-07369, 1-(4-(Aminomethyl)-5-fluoropyridin-2-yl)dihydropyrimidine-2,4(1H,3H)-dione]",B (B is defined as substrate protein remaining % > 80%),B (B is defined as substrate protein remaining % > 80%),B (B is defined as substrate protein remaining % > 80%),A (A is defined as 0% ≤ substrate protein remaining % ≤ 80%),B (B is defined as substrate protein remaining % > 80%),A (A is defined as 0% ≤ substrate protein remaining % ≤ 80%),5.30 to 6.00,,,
"CC(C)(C)[Si](C)(C)OCc1ccc(NC2CCC(=O)NC2=O)cn1 (stereo not shown) [GT-07445, 3-((6-(((tert-Butyldimethylsilyl)oxy)methyl)pyridin-3-yl)amino)piperidine-2,6-dione]",B (B is defined as substrate protein remaining % > 80%),A (A is defined as 0% ≤ substrate protein remaining % ≤ 80%),B (B is defined as substrate protein remaining % > 80%),A (A is defined as 0% ≤ substrate protein remaining % ≤ 80%),A (A is defined as 0% ≤ substrate protein remaining % ≤ 80%),A (A is defined as 0% ≤ substrate protein remaining % ≤ 80%),,6.00 to 6.30,,
"O=C1CCC(Nc2cncc(CO)c2)C(=O)N1 (stereo not shown) [GT-07448, 3-((5-(Hydroxymethyl)pyridin-3-yl)amino)piperidine-2,6-dione]",A (A is defined as 0% ≤ substrate protein remaining % ≤ 80%),A (A is defined as 0% ≤ substrate protein remaining % ≤ 80%),A (A is defined as 0% ≤ substrate protein remaining % ≤ 80%),A (A is defined as 0% ≤ substrate protein remaining % ≤ 80%),A (A is defined as 0% ≤ substrate protein remaining % ≤ 80%),A (A is defined as 0% ≤ substrate protein remaining % ≤ 80%),5.30 to 6.00,,,
"CC(C)(C)[Si](C)(C)OCc1ccc(NC2CCC(=O)NC2=O)nc1 (stereo not shown) [GT-07552, 3-((5-(((tert-Butyldimethylsilyl)oxy)methyl)pyridin-2-yl)amino)piperidine-2,6-dione]",A (A is defined as 0% ≤ substrate protein remaining % ≤ 80%),B (B is defined as substrate protein remaining % > 80%),B (B is defined as substrate protein remaining % > 80%),B (B is defined as substrate protein remaining % > 80%),B (B is defined as substrate protein remaining % > 80%),B (B is defined as substrate protein remaining % > 80%),,5.30 to 6.00,,
"O=Cc1ccnc(NC2CCC(=O)NC2=O)c1 (stereo not shown) [GT-07553, 2-((2,6-Dioxopiperidin-3-yl)amino)isonicotinaldehyde]",A (A is defined as 0% ≤ substrate protein remaining % ≤ 80%),A (A is defined as 0% ≤ substrate protein remaining % ≤ 80%),B (B is defined as substrate protein remaining % > 80%),B (B is defined as substrate protein remaining % > 80%),A (A is defined as 0% ≤ substrate protein remaining % ≤ 80%),B (B is defined as substrate protein remaining % > 80%),5.30 to 6.00,,,
"O=C1CCN(c2cnc(CCl)c(F)c2)C(=O)N1 [GT-07557, 1-(6-(Chloromethyl)-5-fluoropyridin-3-yl)dihydropyrimidine-2,4(1H,3H)-dione]",B (B is defined as substrate protein remaining % > 80%),A (A is defined as 0% ≤ substrate protein remaining % ≤ 80%),B (B is defined as substrate protein remaining % > 80%),B (B is defined as substrate protein remaining % > 80%),A (A is defined as 0% ≤ substrate protein remaining % ≤ 80%),A (A is defined as 0% ≤ substrate protein remaining % ≤ 80%),5.30 to 6.00,,,
"CC(C)(C)[Si](C)(C)OCc1ccc(NC2CCC(=O)NC2=O)nn1 (stereo not shown) [GT-07726, 3-((6-(((tert-Butyldimethylsilyl)oxy)methyl)pyridazin-3-yl)amino)piperidine-2,6-dione]",A (A is defined as 0% ≤ substrate protein remaining % ≤ 80%),A (A is defined as 0% ≤ substrate protein remaining % ≤ 80%),A (A is defined as 0% ≤ substrate protein remaining % ≤ 80%),B (B is defined as substrate protein remaining % > 80%),A (A is defined as 0% ≤ substrate protein remaining % ≤ 80%),B (B is defined as substrate protein remaining % > 80%),,,5.30 to 6.00,
"O=C1CCC(Nc2ncncc2CO)C(=O)N1 (stereo not shown) [GT-07727, 3-((5-(Hydroxymethyl)pyrimidin-4-yl)amino)piperidine-2,6-dione]",A (A is defined as 0% ≤ substrate protein remaining % ≤ 80%),A (A is defined as 0% ≤ substrate protein remaining % ≤ 80%),A (A is defined as 0% ≤ substrate protein remaining % ≤ 80%),B (B is defined as substrate protein remaining % > 80%),A (A is defined as 0% ≤ substrate protein remaining % ≤ 80%),B (B is defined as substrate protein remaining % > 80%),,,,5.30 to 6.00
